The record followed here is patent US20240174657A1, “SELECTIVE ANGIOTENSIN II RECEPTOR LIGANDS” (priority 2021, published 2024).

Broadly, the pIC50 is the IC50 on a negative log10 scale, so that one unit is a factor of ten. One may read the pKi as the negative decadic logarithm of the Ki, by convention in mol/L.

The target in one data set is T1, CYP2C19 (Homo sapiens, UniProt P33261).
T1 construct: using isoform-specific substrates incubated with human liver microsomes; tissue Eurofins protocol ITEMG232; host or cells: human liver microsomes
T1 sequence (P33261 whole entry, canonical isoform): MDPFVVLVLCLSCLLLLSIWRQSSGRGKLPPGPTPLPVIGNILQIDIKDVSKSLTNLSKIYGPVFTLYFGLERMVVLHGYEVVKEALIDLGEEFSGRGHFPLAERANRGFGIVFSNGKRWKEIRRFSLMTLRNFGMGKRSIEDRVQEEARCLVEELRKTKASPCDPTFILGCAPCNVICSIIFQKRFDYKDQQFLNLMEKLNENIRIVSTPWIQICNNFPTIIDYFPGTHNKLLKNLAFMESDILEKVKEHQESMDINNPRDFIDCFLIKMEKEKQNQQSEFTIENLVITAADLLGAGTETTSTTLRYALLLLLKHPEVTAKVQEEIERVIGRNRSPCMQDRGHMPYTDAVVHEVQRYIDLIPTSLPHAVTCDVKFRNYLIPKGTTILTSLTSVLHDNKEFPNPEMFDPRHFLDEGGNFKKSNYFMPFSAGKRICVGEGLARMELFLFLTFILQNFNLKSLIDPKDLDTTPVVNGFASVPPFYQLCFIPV
The data set can be described thus: CYP inhibition in human liver microsomes, omeprazole substrate. In kind it is in vitro ADME. The settings on record: probe omeprazole, read-out: CYP2C19 Inh %. (In general: Microsomes from liver hold many membrane-bound enzymes, among them those of drug oxidation.)

The target of data set [1] is T2, human recombinant AT2 receptor (Homo sapiens, UniProt P50052).
T2 sequence (P50052 1-363): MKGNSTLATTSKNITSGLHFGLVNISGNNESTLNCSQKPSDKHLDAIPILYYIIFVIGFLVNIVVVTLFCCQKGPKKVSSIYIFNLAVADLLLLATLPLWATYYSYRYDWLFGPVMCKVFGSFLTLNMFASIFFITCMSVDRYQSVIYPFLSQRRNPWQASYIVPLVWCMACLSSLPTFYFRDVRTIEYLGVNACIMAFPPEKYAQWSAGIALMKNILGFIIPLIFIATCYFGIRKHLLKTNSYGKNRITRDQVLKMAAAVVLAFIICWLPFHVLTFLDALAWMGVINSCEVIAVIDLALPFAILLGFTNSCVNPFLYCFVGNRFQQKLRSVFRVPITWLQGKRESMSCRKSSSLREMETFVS
The data set can be described thus: biochemical. In kind it is binding. The settings on record: ligand 125I CGP 42112A; for pIC50: test concentrations 1, 10, 100 and 1000 nM, C21* = mean of runs, read-out: AT2 GraFit IC50.

The next data set concerns the target T3, CYP3A4 (Homo sapiens, UniProt P08684).
T3 construct: using isoform-specific substrates incubated with human liver microsomes; tissue Eurofins protocol ITEMG232; host or cells: human liver microsomes
The data set can be described thus: CYP inhibition in human liver microsomes, midazolam substrate. Format: in vitro ADME. Particulars: probe midazolam, read-out: CYP3A4 midazolam Inh %.

A further data set deals with T4, CYP2B6 (Homo sapiens, UniProt P20813).
T4 construct: using isoform-specific substrates incubated with human liver microsomes; tissue Eurofins protocol ITEMG232; host or cells: human liver microsomes
T4 sequence (P20813 1-491): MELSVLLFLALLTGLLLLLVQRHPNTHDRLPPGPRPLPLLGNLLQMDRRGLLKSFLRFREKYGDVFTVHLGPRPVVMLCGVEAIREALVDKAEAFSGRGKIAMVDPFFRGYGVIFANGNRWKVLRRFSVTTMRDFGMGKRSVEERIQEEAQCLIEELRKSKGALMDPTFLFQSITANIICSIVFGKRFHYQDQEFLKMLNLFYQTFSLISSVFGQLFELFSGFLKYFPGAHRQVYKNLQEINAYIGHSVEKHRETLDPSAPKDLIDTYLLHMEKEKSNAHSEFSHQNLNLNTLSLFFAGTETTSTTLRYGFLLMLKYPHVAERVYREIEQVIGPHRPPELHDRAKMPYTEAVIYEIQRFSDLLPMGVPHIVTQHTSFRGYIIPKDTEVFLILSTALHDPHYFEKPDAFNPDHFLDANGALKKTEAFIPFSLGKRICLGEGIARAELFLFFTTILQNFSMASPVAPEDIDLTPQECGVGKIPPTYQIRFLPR
Nature of the data set: CYP inhibition in human liver microsomes, bupropion substrate. In kind it is in vitro ADME. Particulars: probe bupropion, read-out: CYP2B6 Inh %.

The target in data set [2] is T5, human recombinant AT1 receptor (Homo sapiens, UniProt P30556).
T5 construct: Eurofins protocol ITEM24
T5 sequence (P30556 1-359): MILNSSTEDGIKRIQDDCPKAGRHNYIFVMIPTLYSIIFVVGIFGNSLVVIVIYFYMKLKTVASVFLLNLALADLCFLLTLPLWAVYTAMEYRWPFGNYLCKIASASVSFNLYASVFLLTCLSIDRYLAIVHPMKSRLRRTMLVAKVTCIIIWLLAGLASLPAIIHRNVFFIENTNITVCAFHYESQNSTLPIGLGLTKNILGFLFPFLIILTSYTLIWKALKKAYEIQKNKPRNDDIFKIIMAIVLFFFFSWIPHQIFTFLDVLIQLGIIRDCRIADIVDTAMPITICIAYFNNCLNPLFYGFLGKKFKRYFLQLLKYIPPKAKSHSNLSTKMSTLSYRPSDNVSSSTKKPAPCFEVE
The data set can be described thus: Binding to AT1 receptor, radiometric scintillation assay (Eurofins ITEM24).

In the next data set the target is T6, CYP2C8 (Homo sapiens, UniProt P10632).
T6 construct: using isoform-specific substrates incubated with human liver microsomes; tissue Eurofins protocol ITEMG232; host or cells: human liver microsomes
T6 sequence (P10632 1-490): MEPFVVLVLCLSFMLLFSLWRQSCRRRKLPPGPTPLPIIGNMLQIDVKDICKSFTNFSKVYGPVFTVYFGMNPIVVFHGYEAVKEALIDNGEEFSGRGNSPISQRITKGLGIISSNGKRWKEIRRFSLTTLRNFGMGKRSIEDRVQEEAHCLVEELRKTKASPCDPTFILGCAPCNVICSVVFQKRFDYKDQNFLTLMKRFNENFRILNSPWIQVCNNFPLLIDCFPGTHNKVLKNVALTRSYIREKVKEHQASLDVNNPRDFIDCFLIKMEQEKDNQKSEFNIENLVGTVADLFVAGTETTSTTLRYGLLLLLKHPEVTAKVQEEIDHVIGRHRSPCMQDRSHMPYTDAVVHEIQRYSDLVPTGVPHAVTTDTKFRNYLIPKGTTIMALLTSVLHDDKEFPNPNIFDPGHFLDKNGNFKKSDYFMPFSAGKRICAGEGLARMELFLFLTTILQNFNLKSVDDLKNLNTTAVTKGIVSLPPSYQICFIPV
Nature of the data set: CYP inhibition in human liver microsomes, paclitaxel and amodiaquine substrates. Format: in vitro ADME. The settings on record: probe paclitaxel and amodiaquine, read-out: CYP2C8 Inh %.

In the next data set the target is T7, CYP2C9 (Homo sapiens, UniProt P11712).
T7 construct: using isoform-specific substrates incubated with human liver microsomes; tissue Eurofins protocol ITEMG232; host or cells: human liver microsomes
T7 sequence (P11712 whole entry, canonical isoform): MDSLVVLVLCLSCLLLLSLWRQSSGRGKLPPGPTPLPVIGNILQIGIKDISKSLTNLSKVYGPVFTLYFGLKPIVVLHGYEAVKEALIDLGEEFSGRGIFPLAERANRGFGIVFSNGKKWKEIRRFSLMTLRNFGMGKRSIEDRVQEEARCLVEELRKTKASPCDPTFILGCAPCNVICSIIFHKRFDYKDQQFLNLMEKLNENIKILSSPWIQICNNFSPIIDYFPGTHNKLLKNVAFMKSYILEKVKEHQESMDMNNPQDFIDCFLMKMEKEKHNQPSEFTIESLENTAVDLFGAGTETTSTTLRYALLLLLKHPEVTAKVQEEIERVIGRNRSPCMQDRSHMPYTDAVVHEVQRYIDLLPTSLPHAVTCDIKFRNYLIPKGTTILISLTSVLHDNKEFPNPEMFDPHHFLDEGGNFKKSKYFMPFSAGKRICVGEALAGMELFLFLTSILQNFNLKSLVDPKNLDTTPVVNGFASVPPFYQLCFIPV
The data set can be described thus: CYP inhibition in human liver microsomes, diclofenac substrate. Format: in vitro ADME. Particulars: probe diclofenac, read-out: CYP2C9 Inh %.

The next data set deals with T8, CYP2D6 (Homo sapiens, UniProt P10635).
T8 construct: tissue Eurofins protocol ITEMG232; host or cells: human liver microsomes
T8 sequence (P10635 whole entry): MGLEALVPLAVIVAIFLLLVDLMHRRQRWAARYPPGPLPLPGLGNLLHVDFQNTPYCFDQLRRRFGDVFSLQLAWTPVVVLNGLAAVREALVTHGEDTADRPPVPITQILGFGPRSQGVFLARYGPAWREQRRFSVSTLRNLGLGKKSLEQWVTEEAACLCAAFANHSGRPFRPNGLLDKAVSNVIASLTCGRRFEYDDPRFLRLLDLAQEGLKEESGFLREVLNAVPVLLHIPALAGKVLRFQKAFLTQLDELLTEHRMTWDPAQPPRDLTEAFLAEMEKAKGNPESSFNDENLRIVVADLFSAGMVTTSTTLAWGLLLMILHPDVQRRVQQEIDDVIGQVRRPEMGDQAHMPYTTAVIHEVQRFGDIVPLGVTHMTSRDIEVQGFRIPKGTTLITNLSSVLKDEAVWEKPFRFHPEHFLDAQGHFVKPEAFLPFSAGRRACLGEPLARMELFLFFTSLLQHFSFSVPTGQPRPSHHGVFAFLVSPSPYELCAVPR
The data set can be described thus: CYP inhibition in human liver microsomes, dextromethorphan substrate. Format: in vitro ADME. The settings on record: probe dextromethorphan, read-out: CYP2D6 Inh %.

The next data set concerns CYP3A4&5. Nature of the data set: CYP inhibition in human liver microsomes, testosterone substrate. Format: in vitro ADME. Particulars: probe testosterone, read-out: CYP3A4&5 testosterone Inh %.
A short description of data set [3]: Metabolic stability in pooled human liver microsomes. Particulars: human liver microsomes 0.5 mg/mL, 1 uM test compound, 37° C.; for T1/2, + NaDPH: with 1 mM NADPH; for half-life at 1 uM: pooled human liver microsomes, without NADPH, read-out: T1/2, no NaDPH. In kind it is in vitro ADME. The method, then: Pooled human liver microsomes in PBS at a concentration of 0.5 mg/mL was incubated with or without 1 mM NADPH for 70 min at 37° C. Test compound was added after 10 minutes to a final concentration of 1 uM. Samples were withdrawn at 0, 5, 15 and 60 minutes and added to test tubes containing acetonitrile, to stop the reaction, and with terfenadine, used as internal standard. After centrifugation at 10 000×g for 5 minutes the supernatant was diluted 1:1 with 1% formic acid. Samples were separated on a reverse phase column and detected by triple quadrupole MSMS (Agilant model 6540). The concentration of the parent compound at the different time points was measured with an external standard curve using terfenadine as internal standard and the initial metabolic rate in the presence or absence of NADPH calculated.

The target of the next data set is T9, CYP1A (Homo sapiens, UniProt P05177).
T9 construct: using isoform-specific substrates incubated with human liver microsomes; tissue Eurofins protocol ITEMG232; host or cells: human liver microsomes
T9 sequence (P05177 whole entry, canonical isoform): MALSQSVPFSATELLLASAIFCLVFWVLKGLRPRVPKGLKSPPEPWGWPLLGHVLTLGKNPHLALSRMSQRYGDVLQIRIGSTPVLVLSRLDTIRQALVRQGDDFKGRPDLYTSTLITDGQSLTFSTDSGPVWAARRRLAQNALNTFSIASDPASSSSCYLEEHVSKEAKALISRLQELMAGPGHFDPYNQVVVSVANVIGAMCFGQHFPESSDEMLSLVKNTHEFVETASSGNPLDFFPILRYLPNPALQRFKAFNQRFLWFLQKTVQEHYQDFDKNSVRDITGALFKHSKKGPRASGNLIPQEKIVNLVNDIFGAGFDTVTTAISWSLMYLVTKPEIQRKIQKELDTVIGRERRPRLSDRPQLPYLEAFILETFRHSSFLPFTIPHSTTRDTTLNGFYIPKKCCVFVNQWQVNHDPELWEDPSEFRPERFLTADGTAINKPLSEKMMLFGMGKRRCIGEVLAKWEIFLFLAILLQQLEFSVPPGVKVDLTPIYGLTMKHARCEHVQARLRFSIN
Nature of the data set: CYP inhibition in human liver microsomes, phenacetin substrate. Format: in vitro ADME. The settings on record: probe phenacetin, read-out: CYP1A Inh %.

Structures are written as SMILES. pIC50, pKi: −log10 of the molar value. Where only a bound is given, the exact number is not on record here.

T3 sequence (P08684 whole entry, canonical isoform): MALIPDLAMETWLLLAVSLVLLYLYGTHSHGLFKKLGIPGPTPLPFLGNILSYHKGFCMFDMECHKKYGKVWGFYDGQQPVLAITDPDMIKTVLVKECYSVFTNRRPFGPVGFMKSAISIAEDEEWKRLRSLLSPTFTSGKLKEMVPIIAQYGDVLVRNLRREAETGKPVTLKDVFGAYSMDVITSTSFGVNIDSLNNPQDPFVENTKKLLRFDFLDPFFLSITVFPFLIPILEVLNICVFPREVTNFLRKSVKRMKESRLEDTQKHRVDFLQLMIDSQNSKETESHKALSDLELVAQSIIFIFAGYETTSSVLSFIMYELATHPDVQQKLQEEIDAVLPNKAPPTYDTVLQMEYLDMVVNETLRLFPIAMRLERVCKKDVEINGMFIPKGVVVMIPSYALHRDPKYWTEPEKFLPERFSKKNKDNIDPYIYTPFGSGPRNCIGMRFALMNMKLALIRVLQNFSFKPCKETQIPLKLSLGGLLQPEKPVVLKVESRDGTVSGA

In the case of `CC(C)Cc1cc(-c2ccc(Cn3ccnc3C(C)(C)C)c(F)c2)c(S(=O)(=O)NC(=O)NCC(C)(C)O)s1` [Example 7, 1-[[3-[4-[(2-tert-Butylimidazol-1-yl)methyl]-3-fluoro-phenyl]-5-isobutyl-2-thienyl]sulfonyl]-3-(2-hydroxy-2-methyl-propyl)urea], the inhibition at 10 µM at CYP2C19 turned out to be 27.4%; at CYP3A4, 7.7%; at CYP2B6 it was 17.4%; on CYP2C8 it was 69.8%; at CYP2C9 it was 9.9%; on CYP2D6, 3.9%. Further, the inhibition at 10 µM in the data set with CYP3A4&5 turned out to be 2.8%; at CYP1A it was 2.7%. Moreover, the negative-log IC50 (pIC50) in [1] was 9.02; in data set [2], 5.72. In addition, the “T1/2, + NaDPH” value in data set [3] was >1 h. Besides, in [3], the half-life at 1 uM was > 1 h.

For the molecule `Cc1nccn1Cc1ccc(-c2cc(CC(C)C)sc2S(=O)(=O)NC(=O)NCCCO)cc1F` [Example 2, 1-[[3-[3-Fluoro-4-[(2-methylimidazol-1-yl)methyl]phenyl]-5-isobutyl-2-thienyl]sulfonyl]-3-(3-hydroxypropyl)urea], the inhibition at 10 µM on CYP2C19 turned out to be 26.3%; at CYP3A4 it was 25.3%; at CYP2B6, 3.1%; on CYP2C8, 30.9%; on CYP2C9, 16.5%; on CYP2D6, 13.6%. The figures for the inhibition at 10 µM in the data set on CYP3A4&5 and at CYP1A were 18.4% and -0.9%, respectively. Also, the pIC50 in data set [1] was 7.70; in data set [2], 4.68. Also, the “T1/2, + NaDPH” value in data set [3] was >1 h. For the same molecule, in data set [3], the half-life at 1 uM was > 1 h.

`Cc1nccn1Cc1ccc(-c2cc(CC(C)C)sc2S(=O)(=O)NC(=O)NCCO)cc1F` [Example 1, 1-[[3-[3-Fluoro-4-[(2-methylimidazol-1-yl)methyl]phenyl]-5-isobutyl-2-thienyl]sulfonyl]-3-(2-hydroxyethyl)urea]: the inhibition at 10 µM is 6.5% at CYP2C19; 7.2% at CYP3A4; 6.2% at CYP2B6; 35.2% on CYP2C8; 5.5% at CYP2C9; 5.3% at CYP2D6. For the same molecule, the values for the inhibition at 10 µM in the data set with CYP3A4&5 and at CYP1A were 12.4% and -26.3%, respectively. Further, the negative logarithm of the IC50 (pIC50) in [1] is 8.30; in data set [2], 4.62. In data set [3], the “T1/2, + NaDPH” value was >1 h. Also, the half-life at 1 uM in data set [3] is > 1 h.

Turning to `CCc1nccn1Cc1ccc(-c2cc(CC(C)C)sc2S(=O)(=O)NC(=O)NCCO)cc1F` [Example 8], the inhibition at 10 µM on CYP2C19 amounted to 17.7%; on CYP3A4, 23.7%; on CYP2B6, 14%; on CYP2C8, 2.3%; at CYP2C9 it was 26.8%; at CYP2D6 it was 8%. For the same molecule, the inhibition at 10 µM amounted to 22.3% in the data set on CYP3A4&5 and 11.8% on CYP1A. Also, the results for the pIC50 in data set [1] and in data set [2] were 8.60 and 5.02, respectively. The “T1/2, + NaDPH” value in data set [3] was >1 h. Further, the half-life at 1 uM in [3] is > 1 h.

For the molecule `CC(C)Cc1cc(-c2ccc(Cn3ccnc3C(C)(C)C)c(F)c2)c(S(=O)(=O)NC(=O)NCCO)s1` [Example 6, 1-[[3-[4-[(2-tert-Butylimidazol-1-yl)methyl]-3-fluoro-phenyl]-5-isobutyl-2-thienyl]sulfonyl]-3-(2-hydroxyethyl)urea], the inhibition at 10 µM came out at 14.7% on CYP2C19; 13% at CYP3A4; 8.2% at CYP2B6; 73.8% on CYP2C8; 11.5% at CYP2C9; 10.1% on CYP2D6. Further, the results for the inhibition at 10 µM in the data set with CYP3A4&5 and on CYP1A were 4.5% and 3.5%, respectively. The negative logarithm of the IC50 (pIC50) was 9.19 in [1] and 5.68 in data set [2]. Besides, the “T1/2, + NaDPH” value in data set [3] was >1 h. In addition, the half-life at 1 uM in data set [3] is > 1 h.

`CC(C)Cc1cc(-c2ccc(Cn3ccnc3C(C)C)c(F)c2)c(S(=O)(=O)NC(=O)NCCO)s1` [Example 10, 1-[[3-[3-Fluoro-4-[(2-isopropylimidazol-1-yl)methyl]phenyl]-5-isobutyl-2-thienyl]sulfonyl]-3-(2-hydroxyethyl)urea]: the pKi in [1] (seven-point dose-response curve, read-out: AT2R Ki) is 9.02. In addition, the pIC50 in data set [1] was 8.72. The pIC50 in [2] was 5.08. In [3], the “T1/2, + NaDPH” value was >1 h and the half-life at 1 uM is > 1 h.

As to `Cc1nccn1Cc1ccc(-c2cc(CC(C)C)sc2S(=O)(=O)NC(=O)NCCO)c(F)c1` [Example 4, 1-[[3-[2-Fluoro-4-[(2-methylimidazol-1-yl)methyl]phenyl]-5-isobutyl-2-thienyl]sulfonyl]-3-(2-hydroxyethyl)urea], the inhibition at 10 µM on CYP2C19 turned out to be 29.6%; at CYP3A4, 24.5%; at CYP2B6 it was 3.2%; on CYP2C8 it was 10.4%; at CYP2C9, 11.9%; on CYP2D6, 7.6%. The inhibition at 10 µM in the data set on CYP3A4&5 was 18.9%; at CYP1A it was -9.7%. Besides, the negative-log IC50 (pIC50) is 7.34 in [1] and 4.47 in data set [2].
